# From patent US20040176442A1, “Potassium taurate bicarbonate and ascorbate” (priority 2003, published 2004)
# Where “and” joins values, the source holds several entries; their conditions need not be identical. Equal entries are not always repeated.
# Tested on: Dahl salt-sensitive rats
# Assay: Systolic blood pressure of Dahl salt-sensitive rats on high salt diet, PTB in drinking water (tail-cuff plethysmography)
# Assay type: in vivo, rat
# Conditions: for Average systolic blood pressure: 13.5 grams/liter PTB in drinking water
# Description: An experimental study was undertaken to assess the effect on blood pressure of oral PTB given in drinking water to Dahl salt-sensitive rats, which are known to experience an increase in blood pressure upon administration of salt. In this study, salt was administered in the diet to two groups of rats, a placebo group that received salt but not PTB and an active group that received both salt and PTB in drinking water.
# The study was conducted as follows: Twenty-four Dahl salt-sensitive male rats were fed regular rat chow containing 0.24% (w/w) sodium chloride for an acclimatization period. The rats were then switched to a high salt diet (4% NaCl and 1.5% KCl) and were randomly divided into two groups of twelve rats each—an active group supplied with drinking water containing 13.5 grams/liter PTB (prepared as described in Example 2, and a placebo group receiving ordinary drinking water. Food and water were available ad libitum to both groups over the 28-day course of the study. The systolic blood pressure of each rat was determined twice a week over the course of the study by the tail-cuff plethysmography method. Each recorded blood pressure was the average of 3-5 individual readings.
# Systolic blood pressure rose progressively after high-salt intake in the placebo group, reaching 172±4 mm Hg at day 28.
smiles,measurement,setting,value
"NCCS(=O)(=O)O.O=C([O-])O.[K+] [PTB, potassium taurate bicarbonate]",Blunting of the expected rise in systolic blood pressure (active vs placebo group),"by the end of the 28-day study, PTB in drinking water, high salt diet",21 mm Hg
same,Average systolic blood pressure,"day 3 after administration, high salt diet (4% NaCl and 1.5% KCl)",114 mm Hg
same,Average systolic blood pressure,"day 7 after administration, high salt diet",126 mm Hg
same,Average systolic blood pressure,"day 10 after administration, high salt diet",133 mm Hg
same,Average systolic blood pressure,"day 14 after administration, high salt diet",134 mm Hg
same,Average systolic blood pressure,"day 17 after administration, high salt diet",138±2 mm Hg and 138 mm Hg
same,Average systolic blood pressure,"day 21 after administration, high salt diet",150 mm Hg
same,Average systolic blood pressure,"day 24 after administration, high salt diet",143±3 mm Hg and 143 mm Hg
same,Average systolic blood pressure,"day 28 after administration, high salt diet",151±3 mm Hg and 151 mm Hg
